Assay results published in PMC3951225, “Cytotoxic Sesquiterpene Lactones from Kauna lasiophthalma Griseb” (Scientia Pharmaceutica, 2014).
“Also recorded” adds a separate entry of the source.

Assays:
Assay type in all cases: cell-based, human
[1] = tested on: MCF-7 cells; assay: MTT cytotoxicity dose-response assay, MCF-7; conditions: 72 h treatment, a/b/c = one, two, three or more dose-response curves
Experimental: (§1) The L56Br-C1 cell line was established at the Department of Oncology, Clinical Sciences, Lund University, Sweden. The JIMT-1 cell line was purchased from the German Collection of Microorganisms and Cell Cultures (Braunschweig, Germany) and the MCF-7, SK-BR-3, HCC1937, and MCF-10A cells were obtained from the American Tissue Type Culture Collection (Manassas, VA, USA). The cell lines were cultured as monolayers at 37°C in a humidified incubator with 5% CO2 in air. The MCF-10A cells have a population doubling time of 15 hours, the JIMT-1 cells 24 hours, and the other four cell lines around 35 hours.
(§2) The L56Br-C1, MCF-7, SK-BR-3, and HCC1937 cells were cultured as described by Holst et al. JIMT-1 cells were cultured in DMEM/Ham’s F12 medium supplemented with 10% fetal calf serum, non-essential amino acids (1 mM), insulin (10 μg/ml), penicillin (100 U/ml), and streptomycin (100 μg/ml). MCF-10A cells were maintained in RPMI 1640 medium supplemented with 10% heat-inactivated fetal calf serum, non-essential amino acids (1 mM), insulin (10 μg/ml), epidermal growth factor (20 ng/ml), cholera toxin (50 ng/ml), hydrocortisone (250 ng/ml), penicillin (100 U/ml), and streptomycin (100 μg/ml). The MCF-10A and JIMT-1 cell lines were sub-cultured twice a week, while the L56Br-C1, MCF-7, SK-BR-3, and HCC1937 cells were sub-cultured once a week with an additional change of growth medium once a week.
(§3) Stock solutions ([…]) of the compounds were made in 100% DMSO. These were further diluted in PBS to obtain the correct concentrations used for the MTT assay. Appropriate DMSO controls were used. In general, the highest DMSO concentration was 0.1%, however, when treating with 100 μM and starting from a […] in 100% DMSO, a final concentration of 1% DMSO was used as the control.
(§4) The MTT assay was performed as previously described. Briefly, the cells were trypsinized and counted in a hemocytometer. Aliquots of 180 μl cell suspensions containing 3000 (MCF-10A) and 6000 (MCF-7, SK-BR-3, JIMT-1, L56Br-C1, and HCC1937) cells were seeded in the wells of 96-well plates. Compounds were added 24 hours after seeding to allow the attachment of cells. A concentration range between 0.1 to 100 μM was used in the MTT assays and appropriate DMSO controls. At 72 h of drug treatment, 20 μl of MTT solution (5 mg/ml MTT in PBS) was added to each well and the 96-well plates were returned to the CO2 incubator for 1 hour. The MTT-containing medium was removed. The blue formazan product formed by the reduction in live attached cells was dissolved by adding 100 μl of 100% DMSO per well after removal of the MTT-containing medium. The plates were swirled gently at room temperature for 10 minutes to dissolve the precipitate. Absorbance was monitored at 540 nm in a Labsystems iEMS Reader MF (Labsystems Oy, Helsinki, Finland) using the DeltaSoft II v.4.14 software (Biometallics Inc., Princeton, NJ, USA). Dose-response curves were drawn based on the % of the control in Excel. The IC50 was deduced from the curves.

[2] = tested on: HCC1937 cells; assay: MTT cytotoxicity dose-response assay, HCC1937; conditions: 72 h treatment, a/b/c = one, two, three or more dose-response curves
Experimental: as §1, §2, §3, §4

[3] = tested on: JIMT-1 cells; assay: MTT cytotoxicity dose-response assay, JIMT-1; conditions: 72 h treatment, a/b/c = one, two, three or more dose-response curves
Experimental: as §1, §2, §3, §4

[4] = MTT cytotoxicity dose-response assay, MCF-10A (non-cancerous); conditions: human, MCF-10A cells (normal-like breast epithelial cell line), 72 h treatment, a/b/c = one, two, three or more dose-response curves
Experimental: as §1, §2, §3, §4

[5] = tested on: SK-BR-3 cells; assay: MTT cytotoxicity dose-response assay, SK-BR-3; conditions: 72 h treatment, a/b/c = one, two, three or more dose-response curves
Experimental: as §1, §2, §3, §4

[6] = tested on: L56Br-C1 cells; assay: MTT cytotoxicity dose-response assay, L56Br-C1; conditions: 72 h treatment, a/b/c = one, two, three or more dose-response curves
Experimental: as §1, §2, §3, §4

[7] = tested on: breast cancer cell lines HCC1937, JIMT-1, L56Br-C1, MCF-7, and SK-BR-3; assay: MTT assay, panel of five breast cancer cell lines; conditions: for Anticancer activity / relative potency in words: breast cell lines, comparison among the tested compounds
Experimental: The anticancer activities of sesquiterpenes 1, 3, 6–9, 11, 12, 14, and 16 were assessed in five breast-cancer cell lines, HCC1937, JIMT-1, L56Br-C1, MCF-7, and SK-BR-3, and compared with the cytotoxicity in the breast-derived non-cancerous cell line MCF-10A using the MTT colorimetric assay. […] 16 is an unsaturated ester and differs in that respect from the other compounds, but the lower activity of 3 compared to the similar compounds was unexpected. Costunolide (1) differs from the eudesmane sesquiterpenes by having the unsaturated lactone fused with a macrocyclic system instead of a cyclohexane ring, and the tension of the lactone ring is likely to be lower in 1. […] The difference in the activities of 7 and 8 may depend on the higher lipophilicity of 8, facilitating its absorption into the cells. In 11 and 14, the presence of a second Michael acceptor function may influence the activity. […] MCF-7 has a normal wild type p53 gene, which the MCF-10A cells also have, while the others have a mutated p53.
as §3, §4

[8] = tested on: MCF-10A cells; assay: MTT cytotoxicity dose-response assay, MCF-10A (non-cancerous); conditions: normal-like breast epithelial cell line, 72 h treatment, a/b/c = one, two, three or more dose-response curves
Experimental: as §1, §2, §3, §4

SMILES | IC50 ([1]; Homo sapiens, MCF7, 72 h) | IC50 ([2]; Homo sapiens, HCC1937, 72 h) | IC50 [3] | IC50 ([3]; Homo sapiens, JIMT-1, 72 h) | IC50 at 72 h [4] | IC50 ([5]; Homo sapiens, SK-BR-3, 72 h) | IC50 ([6]; Homo sapiens, 72 h) | Anticancer activity / relative potency in words [7] | IC50 [1] | IC50 [2] | IC50 [5] | IC50 [6] | IC50 [8] | IC50 ([7]; Homo sapiens, five breast cancer cell lines, read-out: IC50 values, range over the cancer cell lines)
C=C1C(=O)O[C@@H]2[C@H]3C(C)=CC[C@@H](O)[C@]3(C)CC[C@@H]12 [Compound 9, santamarin] | 9.7 ± 0.9 µM | 8.1 ± 1.8 µM | 7.2 µM | 6.9 µM | 17 µM | 3.1 ± 0.6 µM | 12.3 ± 5.5 µM |  |  |  |  |  |  | 
C=C(C(=O)OC)C1CCC2(C)C(O)CCC(=C)C2C1O (stereo not drawn) [Compound 16, baynol C] | 27.4 ± 17.2 µM | 24 µM | 23 µM | 13 µM | 29 µM | 9.9 ± 3 µM | 16 µM | lowest activity |  |  |  |  |  | 
C=C1C(=O)OC2C1CCC1(C)C(O)CCC(=C)C21 (stereo not drawn) [Compound 7, 1-epi-reynosin] | 23 µM | 12 µM | 14 µM | 12 µM | 22 µM | 7.6 µM | 9 µM |  | 30 µM | 18.5 µM | 6.4 µM | 10.1 µM |  | 
C=C1C(=O)O[C@@H]2[C@@H]3[C@@](C)(CC[C@@H]12)[C@@H](OC(C)=O)CC[C@]3(C)O (relative stereo) [Compound 3, (+)-(3aS*,5aR*,6S*,9S*,9aS*,9bS*)-9-Hydroxy-5a,9-dimethyl-3-methylidene-2-oxododeca-hydronaphtho[1,2-b]furan-6-yl acetate] | 27 µM | 23 µM |  | 18 µM | 38 µM | 10.1 µM | 9.3 µM | lowest activity |  |  |  |  |  | 
C=C1C(=O)O[C@H]2[C@H]1CCC(C)=C1[C@@H](OC(C)=O)[C@H]3O[C@@]3(C)[C@@H]12 [Compound 12, 2β-acetoxy-3α,4α-epoxy-3,4-dihydrokauniolide] | 7.1 µM | 6 µM | 10.1 µM | 7.1 µM |  | 4.2 ± 1.1 µM | 6 µM |  | 8.3 µM | 7.8 µM |  | 10.1 µM |  | 
C=C1CC[C@@H](O)[C@]2(C)CC[C@H]3C(=C)C(=O)O[C@@H]3[C@@H]12 [Compound 6, reynosin] | 16.4 ± 7.1 µM | 10 µM | 12 µM | 8.5 µM | 17 µM | 5.2 ± 1.6 µM | 11 µM |  |  |  |  |  |  | 
C=C1C(=O)OC2C1CCC1(C)C(=O)C=CC(C)(O)C21 (stereo not drawn) [Compound 11, 11,13-didehydrovulgarin] | 10.1 µM | 4.8 µM | 13 µM | 10 µM | 24 µM | 4.2 ± 2.1 µM | 3.6 µM |  | 18 µM | 7.8 µM |  |  | 21 µM | 
C=C1C(=O)O[C@@H]2[C@H]3C(C)=CC(=O)C3=C(C)CC[C@@H]12 [Compound 14, dehydroleucodin] | 3.3 µM | 3 µM | 8.1 µM | 7.5 µM | 20 µM | 2.5 ± 0.4 µM | 5.8 µM |  | 4.3 µM | 5.2 µM |  | 10 µM | 23 µM | 
COC(=O)C(N)CSCC1C(=O)OC2C1CCC1(C)C(O)CC=C(C)C21 (stereo not drawn) [Compound 21] | > 100 µM | 100 µM |  | > 100 µM | 41 µM | 51 µM | 73 µM | significantly less potent; also recorded: inactive or considerably less potent |  |  | 40 µM |  |  | 
C=C1C(=O)O[C@@H]2/C=C(\C)CC/C=C(\C)CC[C@@H]12 [Compound 1, costunolide] | 5.3 ± 1.4 µM | 2.2 µM | 6.3 µM | 6.2 µM | 20 µM | 2 ± 1 µM | 3.7 µM | most active in all of the cell lines |  | 4.2 µM |  | 4.8 µM |  | 2 to 6.2 µM
C=C1CC[C@H](OC(C)=O)[C@]2(C)CC[C@H]3C(=C)C(=O)O[C@@H]3[C@@H]12 (relative stereo) [Compound 8, (3aS*,5aR*,6S*,9aS*,9bS*)-5a-Methyl-3,9-dimethylidene-2-oxododecahydro-naphtho[1,2-b]furan-6-yl acetate] | 11 ± 1.7 µM |  | 7 µM | 6.3 µM | 24 µM | 4.7 ± 1.1 µM | 8.4 µM |  |  |  |  | 12 µM |  | 
